# Results as given in patent publication US20020162794A1, “Anaerobic digestion” (priority 2001, published 2002).
# Several values for one entry are separate records, joined by “and”; a condition that tells them apart may be missing. Equal values may be shown once.
# System: mixed culture from a publicly owned anaerobic digester (domestic sewage sludge)
# Assay: Chemical Oxygen Demand (COD) of batch anaerobic digester reactors
# Settings: for COD Concentration: 7/1/99 run (Tables 5, 6)
# Description: Two tests were run in which sodium formate in concentrations ranging from a few parts per million (ppm) up to ten percent (10%) on a mass basis were added to samples taken from a publicly owned anaerobic digester. The samples were first cultured in laboratory sized batch reactors. The twelve batch reactors were then sampled, and studied for periods of up to fifty-five days. The process variables that were monitored included COD (Chemical Oxygen Demand), TS (Total Solids), TVS (Total Volatile Solids) and the pH of the culture. Time and the initial sodium formate concentration level were the independent variables. Finally measurements were also made of the bacterial counts at the beginning and at the end of the fifty five day period. These experimental observations permitted partial identifications of the predominant bacterial colonies still viable in each of the twelve reactors used for each trial of the laboratory study.
# Chemical Oxygen Demand (COD) measurements
# To perform this measurement, a 5 ml of the sample from each of the 12 reactors is taken and diluted 10-fold to 50 ml. 5 ml of the now diluted sample is again diluted 10 fold to 50 ml. This double dilution represents a 100-fold dilution of the original sample. 2 ml of these diluted samples are put into standard COD test tubes. The test tubes are closed and shaken vigorously. The 13 (COD) test tubes (one is a control) are then heated to 150 deg. C for two hours. The UV spectrometer is calibrated by first analyzing the test tube with pure distilled water as the zero COD or control sample.
# The sample test tubes are then analyzed for COD using UV spectrometer after inputting the method number and adjusting the frequency of UV rays to correspond to a sample with a high organic loading range. The readings that were obtained in units of mg/liter are multiplied by 100 to correct for the dilution procedure and to get COD concentration level for the original sample. COD is indicative of the organic substrate load level in the wastewater being treated or tested.
# Municipal sludge from the city of Lubbock, Wastewater Treatment Plant was digested in 12 batch digesters. Using twelve batch reactors allowed the collection of control reactors data (i.e., no formate in the reactors) in triplicate, titration studies of increasing formate concentration, and duplicates/triplicates of varying formate concentration. Experiments were conducted in the laboratories of Texas Tech University.
# The substrate taken was 2 parts of 50 g/liter sucrose solution mixed with 1 part of digested municipal sludge which acts as the seed material for incorporation of microbes into the reactors. The experiments were started with the following protocol. [drawing 1]
smiles,measurement,setting,value
O=C[O-].[Na+] [sodium formate],COD Concentration,"5000 ppm, 9 days",44.2 g/L
same,COD Concentration,"5000 ppm, 16 days",30.4 g/L
same,COD Concentration,"5000 ppm, 24 days",30.9 g/L
same,COD Concentration,"5000 ppm, 55 days",34.3 g/L
same,COD Concentration,"10000 ppm, 0 Day (with formate addition)",58.2 g/L and 69 g/L and 36.7 g/L
same,COD Concentration,"10000 ppm, 7 Day",56.4 g/L and 44.3 g/L
same,COD Concentration,"10000 ppm, 1 days, listed as Format",50.7 g/L and 52.3 g/L and 45.5 g/L
same,COD Concentration,"10000 ppm, 1 days, listed as Formate",45.5 g/L
same,COD Concentration,"10000 ppm, 4 days",47.3 g/L and 43.5 g/L and 43.2 g/L
same,COD Concentration,"10000 ppm, 9 days",49.9 g/L and 51.6 g/L and 43.7 g/L
same,COD Concentration,"10000 ppm, 16 days",38.2 g/L and 32 g/L and 40 g/L
same,COD Concentration,"10000 ppm, 24 days",40.8 g/L and 37.1 g/L and 40 g/L
same,COD Concentration,"10000 ppm, 55 days",49.7 g/L and 38.5 g/L and 32 g/L
same,COD Concentration,"100000 ppm, 0 Day (with formate addition)",49 g/L and 64.4 g/L
same,COD Concentration,"100000 ppm, 7 Day",74.9 g/L and 94.5 g/L
same,COD Concentration,"100000 ppm, 1 days, listed as Format",121 g/L and 165 g/L
same,COD Concentration,"100000 ppm, 1 days, listed as Formate",120.7 g/L and 165 g/L
same,COD Concentration,"100000 ppm, 4 days",65.5 g/L and 87.1 g/L
same,COD Concentration,"100000 ppm, 9 days",71 g/L and 89.6 g/L
same,COD Concentration,"100000 ppm, 16 days",57.5 g/L and 67.1 g/L
same,COD Concentration,"100000 ppm, 24 days",41.5 g/L and 25.6 g/L
same,COD Concentration,"100000 ppm, 55 days",64.8 g/L and 73.9 g/L
same,% (reduction of average COD versus 0 ppm),"7/1/99 run, 1000 ppm",0.72%
same,"COD Concentration, Average","7/1/99 run, 1000 ppm, average of 3 reactors, 0 Day",53.8 g/L
same,"COD Concentration, Average","7/1/99 run, 1000 ppm, average of 3 reactors, 7 Day",61.43 g/L
same,"COD Concentration, Average","7/1/99 run, 1000 ppm, average of 3 reactors, 1 days",58.3 g/L and 56.3 g/L
same,"COD Concentration, Average","7/1/99 run, 1000 ppm, average of 3 reactors, 4 days",51.9 g/L
same,"COD Concentration, Average","7/1/99 run, 1000 ppm, average of 3 reactors, 9 days",50.37 g/L
same,"COD Concentration, Average","7/1/99 run, 1000 ppm, average of 3 reactors, 16 days",36.03 g/L
same,"COD Concentration, Average","7/1/99 run, 1000 ppm, average of 3 reactors, 24 days",36.6 g/L
same,"COD Concentration, Average","7/1/99 run, 1000 ppm, average of 3 reactors, 55 days",38.87 g/L
same,% (reduction of average COD versus 0 ppm),"7/1/99 run, 5000 ppm",10.3%
same,"COD Concentration, average over all sampling days (Averag)","7/1/99 run, 5000 ppm, 0 to 55 days",43.5 g/L
same,% (reduction of average COD versus 0 ppm),"7/1/99 run, 10000 ppm",5.79%
same,"COD Concentration, Average","7/1/99 run, 10000 ppm, average of 3 reactors, 0 Day",54.63 g/L
same,"COD Concentration, Average","7/1/99 run, 10000 ppm, average of 3 reactors, 7 Day",52.37 g/L
same,"COD Concentration, Average","7/1/99 run, 10000 ppm, average of 3 reactors, 1 days",49.5 g/L
same,"COD Concentration, Average","7/1/99 run, 10000 ppm, average of 3 reactors, 4 days",44.67 g/L
same,"COD Concentration, Average","7/1/99 run, 10000 ppm, average of 3 reactors, 9 days",48.4 g/L
same,"COD Concentration, Average","7/1/99 run, 10000 ppm, average of 3 reactors, 16 days",36.73 g/L
same,"COD Concentration, Average","7/1/99 run, 10000 ppm, average of 3 reactors, 24 days",39.3 g/L
same,"COD Concentration, Average","7/1/99 run, 10000 ppm, average of 3 reactors, 55 days",40.07 g/L
same,% (reduction of average COD versus 0 ppm),"7/1/99 run, 100000 ppm",−56.1%
same,"COD Concentration, Average","7/1/99 run, 100000 ppm, average of 2 reactors, 0 Day",56.7 g/L
same,"COD Concentration, Average","7/1/99 run, 100000 ppm, average of 2 reactors, 7 Day",84.7 g/L
same,"COD Concentration, Average","7/1/99 run, 100000 ppm, average of 2 reactors, 1 days",143 g/L
same,"COD Concentration, Average","7/1/99 run, 100000 ppm, average of 2 reactors, 4 days",76.3 g/L
same,"COD Concentration, Average","7/1/99 run, 100000 ppm, average of 2 reactors, 9 days",80.3 g/L
same,"COD Concentration, Average","7/1/99 run, 100000 ppm, average of 2 reactors, 16 days",62.3 g/L
same,"COD Concentration, Average","7/1/99 run, 100000 ppm, average of 2 reactors, 24 days",33.55 g/L
same,"COD Concentration, Average","7/1/99 run, 100000 ppm, average of 2 reactors, 55 days",69.35 g/L
same,COD reduction due to the formate (FIG. 2),"25 to 8,750 ppm, 0, 15 and 30 days",~10%
same,average percent range in improvement of measured COD levels,domestic sewage,≤ 12%
same,increase in COD reduction (FIG. 3),"from 0 formate up to about 5,000-7,000 ppm",about 10%
